Data on three compounds can be found in patent publication US9494589B2, “Method of determining the probability of a therapeutic response in cancer chemotherapy with cardiac glycoside” (priority 2007, dated 2016).

A value given as a limit tells only on which side of the number the result lay.

In one assay the test system is BXPC3 cells. Kind of assay: In vitro cytotoxicity, MTT assay of cell proliferation. The format is cell-based, human. Particulars: BXPC3, Pancreas; 72 hr. The text has this:
(§1) As defined in the Tables above, an “in vitro response” denotes the extent to which proliferation of a given tumor cell line is inhibited with a stated concentration of drug (cardiac glycoside) over a defined period of time. A designation of “no response” denotes less than 50% growth inhibition at any of the multiple drug concentrations tested. That is, no concentration could be identified as an IC50 value (that concentration producing inhibition of cell growth by 50% over the stated period of time of the experiment). Accordingly, were this tumor cell line growing in a mammal such as a human, it is probable that the drug would be ineffective in producing significant inhibition of tumor growth. The designation of “partial response” in the Table above denotes the capacity of a given cardiac glycoside such as oleandrin or bufalin to inhibit cell proliferation by more than 50% but less than 75% relative to nontreated tumor cell growth. Accordingly, this would equate to a partial or less than complete therapeutic response of the tumor to the cardiac glycoside if this product were used to treat tumor growth in a mammal such as a human. […] Accordingly, it is probable that total inhibition of tumor growth (or a complete therapeutic response, in a mammal might be achieved.
(§2) Cells were grown in their relevant media as indicated in the table below at a density of 1×10^4 cells/well. After a 24 hr incubation period, cells were treated with various concentrations of oleandrin (1 to 500 nM). After an additional 72 hr, inhibition of cellular proliferation was assessed by MTT assay (23). Absorbance was read at a wavelength of 570 nm and a reference wavelength of 650 nm using a V-Max Micro-plate Reader by Molecular Devices, Inc. (Sunnyvale, Calif.). The relative extent of inhibition of cell proliferation due to the presence of a given concentration of oleander extract or other plant extract containing a cardiac glycoside compound(s) can be derived by comparing treated to non-treated cell numbers after a set period of time allowing for cell growth (e.g. 24-72 hr).
(In general: Tetrazolium dyes change colour on reduction, which living cells bring about.)

For the next assay, the system named is PANC1 cells. Described as above. It is filed as cell-based, human. Particulars: PANC1, Pancreas, 72 hr; for IC50: Homo sapiens, PANC-1.
Text: as §1, §2

The next assay has as its system MiaPaca cells. Described as above. It is filed as cell-based, human. The settings on record: 72 hr; for IC50: Homo sapiens, MIA PaCa-2, Pancreas; for In vitro response: Pancreas.
Text: as §1, §2

Assay [1] deals with rodent (mouse and rat) tumor cell lines. The assay is described as follows: In vitro proliferation of rodent tumor cell lines. It is filed as cell-based. The settings on record: rodent tumor cell lines lacking α3 subunit isoform. The text has this:
Rodent (rat or mouse) cancer cells can be used as a negative control sample. FIG. 1A depicts a film developed against the gel of a Western blot analysis of rodent tumor cell lines. […] Human tumor cell lines are generally more sensitive to treatment with cardiac glycoside-containing composition than are murine tumor cells (FIG. 1B). The inventors believe this difference in therapeutic responsiveness is due to the differences in the ratio of α3 to α1 isoforms in the two different species, as noted above.

The next assay concerns human tumor cell lines. The assay is described as follows: Mean IC50 of growth inhibition in groups of tumor cell lines by α3/α1 isoform ratio. It is filed as cell-based. The settings on record: ten cell lines α3/α1 >1.0 versus six cell lines α3/α1 <1.0. The procedure:
FIG. 3A depicts a plot of concentration (nM) of oleandrin (provided as oleandrin) versus the percentage of growth of control. […] Exemplary cell lines for the groups are: Group I-MDA231, BXPC3, MCF-7; Group II-SUM149, BRO; Group III-Panc-1, CaCo2. The response data are as predicted by the isoform ratio data. In order to establish the robustness of the method and kit of the invention, a statistical analysis of cellular response data was conducted. The data in FIG. 3B depict the relative ability of oleandrin-containing composition to inhibit human tumor cell proliferation in vitro. The data are depicted as Mean±SD. Oleandrin mediated growth inhibition was examined in ten cell lines (representing a variety of solid tumors) in which the relative subunit content α3/α1 isoform ratio >1.0 and six cell lines in which the α3/α1 isoform ratio <1.0.
Student's t test was used to determine the statistical differences between various experimental groups; a value of P<0.05 was considered to be significant.

The test system of another assay is HCT116 cells. The assay is described as follows: In vitro cytotoxicity, MTT assay of cell proliferation. It is filed as cell-based, human. The settings on record: HCT116, Colon, 72 hr.
Text: as §1, §2

The next assay deals with MDA231 cells. The assay is described as above. Particulars: MDA231, Breast; 72 hr. The format is cell-based, human.
Text: as §1, §2

For the next assay, the system named is MCF7 cells. Described as above. It is filed as cell-based, human. Particulars: MCF7, Breast; 72 hr.
Text: as §1, §2

The subject of a further assay is CACO2 cells. The description is as above. The format is cell-based, human. Particulars: CACO2, Colon, 72 hr.
Text: as §1, §2

The test system of another assay is DOD-1 cells. Described as above. The format is cell-based, human. The settings on record: DOD-1, Colon, 72 hr.
Text: as §1, §2

A further assay concerns SUM149 cells. The assay is described as above. The format is cell-based, human. The settings on record: SUM149, Breast, 72 hr.
Text: as §1, §2

The next assay relates to BRO cells. Described as above. The format is cell-based, human. Particulars: Melanoma, 72 hr.
Text: as §1, §2

A further assay concerns HT29 cells. The assay is described as above. It is filed as cell-based, human. The settings on record: HT29, Colon, 72 hr.
Text: as §1, §2

For the next assay, the system named is LS174T cells. The description is as above. It is filed as cell-based, human. Particulars: Colon, 72 hr.
Text: as §1, §2

For assay [2], the system named is Panc-1 cells transfected with α3 siRNA. Kind of assay: Sensitivity to oleandrin of Panc-1 cells transfected with α3 siRNA, Calcein AM viability. The format is cell-based, human. The settings on record: α3 expression reduced by siRNA; 10 to 50 nM, 48 hr. The text has this:
Further proof of the relative importance of the α3/α1 isoform ratio toward predictability of a therapeutic response by a target malignant tissue to treatment with a cardiac glycoside was established as follows. Artificial down-regulation of the expression of α3 isoform in human pancreatic cancer cells, i.e. manipulation of isoform content of subunits of Na, K-ATPase, was achieved by transfection of cells with siRNA (silencing RNA) specific to the α3 isoform. […] Quantitation of the decreased expression of α3 by Western blot is detailed in FIG. 4B.
Panc-1 cells were plated in 6 and 48 well plates and allowed to attach overnight. Transient transfection of α3 siRNA molecules was carried out using siPORT™ Amine Transfection Agent (Ambion Austin, Tex.) and 0.4 μM α3 silencing RNA (Santa Cruz Biotech.) following the manufacture's instructions. Twenty-four hr after transfection, cells were treated with 10 to 50 nM oleandrin for 48 hr. Protein was collected from the 6 well plates for Western blot analysis and cell viability assessment was carried out by Calcien AM staining.

The subject of assay [3] is α1 transfected Panc-1 cells. The assay is described as follows: Sensitivity to oleandrin of Panc-1 cells transfected with α1 subunit isoform. The settings on record: Homo sapiens. It is filed as cell-based. The text has this: (§3) Still further proof of the relative importance of the α3/α1 isoform ratio toward predictability of a therapeutic response by a target malignant tissue to treatment with a cardiac glycoside was established by transfection of Panc-1 cells with α1 subunit isoform. The Na, K-ATPase α1 subunit isoform was transfected to Panc-1 cells, which normally lack α1 expression. The control sample in FIG. 5A is for non-transfected Panc-1 cells, and the α1cDNA sample in FIG. 5A is for Panc-1 cells transfected with the α1 subunit isoform. As a result, the ratio of α3 to α1 was reduced in the transfected Panc-1 cells (FIG. 5B). The sensitivity of the transfected Panc-1 cells to oleandrin treatment was then evaluated.

For assay [4], the system named is non-transfected Panc-1 cells. The assay is described as follows: Sensitivity to oleandrin of non-transfected Panc-1 cells. The settings on record: Homo sapiens. The format is cell-based.
Text: as §3

In assay [5] the test system is Human pancreatic cancer PANC-1 cells. Kind of assay: Cytotoxicity comparison of oleandrin and extracts, crystal violet staining. It is filed as cell-based. The settings on record: oleandrin equivalent concentrations, 72 hr. The method, then: (§4) The cytotoxic potential of both extracts are compared directly with that of oleandrin. The samples contained the same amounts of oleandrin even though their concentration of oleandrin differed due to the concentration of oleandrin present in the extracts.
(§5) BRO (human melanoma) and Panc-1 (human pancreatic cancer) cells (8×10^3/well) were plated in a 96 well plate and allowed to attach overnight. Drug or extracts were then added to the cells. After 72 hr of incubation, relative cell proliferation (relative to control untreated cells) was assessed by crystal violet staining method.

Another assay has as its system Human melanoma BRO cells. The description is as above. Particulars: oleandrin equivalent concentrations, 72 hr. The format is cell-based. The procedure: as §4, §5

In general, IC50 refers to the concentration that gives 50% inhibition. In the case of `C[C@]12CC[C@H](O)C[C@H]1CC[C@@H]1[C@@H]2CC[C@]2(C)[C@@H](c3ccc(=O)oc3)CC[C@]12O` [bufalin], the In vitro response result is listed as “No* (Denotes less than 50% growth inhibition achieved at concentrations up to 125 nM)” in the assay on BXPC3 cells, “Complete*** (Denotes greater than 75% growth inhibition achieved at 62 nM)” in the assay on PANC1 cells and “Complete*** (Denotes greater than 75% growth inhibition achieved at 62 nM)” with MiaPaca cells. Also, the results for the IC50 in the assay on PANC1 cells and with MiaPaca cells were 1.2 nM and 2.1 nM, respectively. For the same compound, the “Inhibition of proliferation in vitro” value in [1] is on record as “not significantly inhibited”.
With `CO[C@H]1C[C@H](O[C@H]2CC[C@@]3(C)[C@H](CC[C@@H]4[C@@H]3CC[C@]3(C)[C@@H](C5=CC(=O)OC5)[C@@H](OC(C)=O)C[C@]43O)C2)O[C@@H](C)[C@@H]1O` [oleandrin], the “Difference in mean IC50 between cell line groups” value in the assay with human tumor cell lines was 8 fold. Besides, the In vitro response result in the assay on HCT116 cells is listed as “Partial** (Denotes greater than 50% but less than 75% growth inhibition achieved at 62 nM)”; in the assay with BXPC3 cells it was “No* (Denotes less than 50% growth inhibition achieved at concentrations up to 125 nM)”; with MDA231 cells, “No* (Denotes less than 50% growth inhibition achieved at concentrations up to 125 nM)”; with MCF7 cells, “No* (Denotes less than 50% growth inhibition achieved at concentrations up to 125 nM)”; in the assay with PANC1 cells, “Complete*** (Denotes greater than 75% growth inhibition achieved at 62 nM)”; in the assay on CACO2 cells, “Complete*** (Denotes greater than 75% growth inhibition achieved at 62 nM)”. The In vitro response result is given as “Complete*** (Denotes greater than 75% growth inhibition achieved at 62 nM)” with DOD-1 cells; “Partial** (Denotes greater than 50% but less than 75% growth inhibition achieved at 62 nM)” in the assay with SUM149 cells; “Complete*** (Denotes greater than 75% growth inhibition achieved at 62 nM)” in the assay with MiaPaca cells; “Complete*** (Denotes greater than 75% growth inhibition achieved at 62 nM)” in the assay with BRO cells; “Complete*** (Denotes greater than 75% growth inhibition achieved at 62 nM)” in the assay on HT29 cells; “Complete*** (Denotes greater than 75% growth inhibition achieved at 62 nM)” in the assay with LS174T cells. Further, the IC50 with HCT116 cells (Homo sapiens, HCT-116) was found to be 36.2 nM; in the assay with PANC1 cells, 6.1 nM; in the assay on CACO2 cells (Homo sapiens, Caco-2), 9.4 nM; in the assay with DOD-1 cells (Homo sapiens), 19.6 nM; with SUM149 cells (Homo sapiens), 22.5 nM; in the assay with MiaPaca cells, 14.2 nM. The IC50 in the assay with BRO cells (Homo sapiens) was 8.2 nM; in the assay with HT29 cells (Homo sapiens, HT-29), 15.6 nM; in the assay with LS174T cells (Homo sapiens), 20.7 nM; in assay [3], over 50 nM; in assay [4], 4.1 nM; in assay [5] it was 10 nM. Also, the 50% inhibitory concentration (IC50) in the assay with Human melanoma BRO cells came to 17 nM. The “Inhibition of proliferation in vitro” value in assay [1] is “not significantly inhibited”. Further, the “Sensitivity of transfected cells to treatment” value in assay [2] is given as “lose their sensitivity”.
As for `C[C@@H]1O[C@@H](O[C@H]2C[C@@H](O)[C@]3(CO)[C@H]4[C@H](O)C[C@]5(C)[C@@H](C6=CC(=O)OC6)CC[C@]5(O)[C@@H]4CC[C@]3(O)C2)[C@H](O)[C@H](O)[C@H]1O` [ouabain], in [1], the “Inhibition of proliferation in vitro” value is on record as “not significantly inhibited”.
